Source: US9765018B2, “IDO inhibitors” (BRISTOL-MYERS SQUIBB COMPANY, priority 2013, dated 2017)

Legend:
[1] = target: T1, IDO (Homo sapiens (Human), UniProt P14902); experiment: LLE_IDO_ABS_DR (IDO assay, method not described)
[2] = target: T1, IDO; experiment: Kynurenine assay in IFN-γ-stimulated Hela cells; type: cell-based; conditions: 20 h, read-out: Hela Kyurenine (IC50)
In short: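 Hela cells adhered 5-6 h, then received inhibitor (top dose 30 μM, 3-fold dilutions to 1.5 nM) plus 100 ng/mL human IFN-γ to induce IDO, 20 h at 37° C. TCA added, 30 min at 50° C hydrolyses N-formylkynurenine to kynurenine. Supernatant mixed with Ehrlich reagent, 10 min RT, absorbance 490 nm.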

[3] = target: Human IDO1 (Homo sapiens (Human), UniProt P14902); experiment: IDO Kynurenine Assay with Human IDO1/HEK293 Cells; type: cell-based; conditions: HEK293 cells with human IDO1; read-out: HEK human IDO-1 (IC50)
Human IDO1, sequence (P14902 whole entry): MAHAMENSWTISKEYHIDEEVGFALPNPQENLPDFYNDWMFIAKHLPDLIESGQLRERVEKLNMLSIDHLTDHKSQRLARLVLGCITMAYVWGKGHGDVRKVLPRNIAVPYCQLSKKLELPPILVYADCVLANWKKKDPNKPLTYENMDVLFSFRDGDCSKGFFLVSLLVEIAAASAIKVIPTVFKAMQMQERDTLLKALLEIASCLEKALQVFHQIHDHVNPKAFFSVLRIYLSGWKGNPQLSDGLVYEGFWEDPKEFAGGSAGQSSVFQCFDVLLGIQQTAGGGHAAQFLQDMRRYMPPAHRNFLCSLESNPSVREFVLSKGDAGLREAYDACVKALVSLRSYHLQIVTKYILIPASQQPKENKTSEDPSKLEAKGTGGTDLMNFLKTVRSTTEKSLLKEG
In short: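 HEK293 cells expressing human IDO1 (10,000/well, phenol-red-free RPMI, 10% FBS) exposed to compound for 20 h at 37 °C. Reaction stopped with 0.2% TCA and heated 30 min at 50 °C; kynurenine in supernatant detected with Ehrlich reagent by absorbance at 490 nm.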

T1 sequence (P14902 whole entry): as above

SMILES	IC50 [1] [nM]	IC50 [2] [nM]	IC50 [3] [nM]
COc1ccc(-c2ccc(Oc3cccc4c3CCCC4)c(NC(=O)Nc3ccccc3)c2)cc1C(=O)O [Example 151, 4-methoxy-3′-(3-phenylureido)-4′-(5,6,7,8-tetrahydronaphthalen-1-yloxy)biphenyl-3-carboxylic acid]	300	60	1120
COc1ccc(-c2ccc(Oc3cccc4c3CCCC4)c(NC(=O)Nc3ccccc3F)c2)cc1C(=O)O [Example 152, 3′-(3-(2-fluorophenyl)ureido)-4-methoxy-4′-(5,6,7,8-tetrahydronaphthalen-1-yloxy)biphenyl-3-carboxylic acid]	290	50	450
COc1ccc(-c2ccc(Oc3cccc4c3CCCC4)c(NC(=O)Nc3ccc(C)c(C)c3)c2)cc1C(=O)O [Example 153, 3′-(3-(3,4-dimethylphenyl)ureido)-4-methoxy-4′-(5,6,7,8-tetrahydronaphthalen-1-yloxy)biphenyl-3-carboxylic acid]	530	40	920
Cc1cccc(NC(=O)Nc2cc(-c3cccc(C(=O)O)c3)ccc2Oc2ccccc2C(C)(C)C)c1 [Example 225, 4′-(2-tert-butylphenoxy)-3′-(3-m-tolylureido) biphenyl-3-carboxylic acid]	2900	570	7650
Cc1ccc(NC(=O)Nc2cc(-c3cccc(C(=O)O)c3)ccc2Oc2cccc(Cl)c2)cc1 [Example 245, 4′-(3-chlorophenoxy)-3′-(3-p-tolylureido) biphenyl-3-carboxylic acid]	2250	250	6580
Cc1ccccc1NC(=O)Nc1cc(-c2cc(F)cc(C(=O)O)c2)ccc1Oc1ccccc1C(C)(C)C [Example 254, 4′-(2-tert-butylphenoxy)-5-fluoro-3′-(3-o-tolylureido) biphenyl-3-carboxylic acid]	1160	350	1620
